Tested on: not listed separately
Assay: Acute Toxicity Study (MTD)
Format: in vivo, rats and mice
Conditions: rats or mice, fed once, oral dose 10000 mg/kg, observed for a week
Source text: Acute Toxicity Study (MTD):
Materials and Methods for MTD Study are as follows:
Animals were fed freely for adaptation more than 1 week. Healthy rats, body weight between 170-190 g, were divided randomly into 3 groups, 5 male and 5 female in each group. Healthy mice, body weight between 18-22 g, were divided randomly into 22 groups, 5 male and 5 female in each group.
In rats, the compound weighing 21.00 g, serial number 1-3 respectively, adding 0.7% sodium carboxymethyl cellulose solution 30.00 g, high-speed homogenizer machine 15000 RPM, 10 min mixing, the rats were fed once, oral dose 10000 mg/kg. In mice, the compound weighing 2.00 g, serial number 4-25 respectively, adding 0.7% sodium carboxymethyl cellulose solution 8.00 g, high-speed homogenizer machine 10000 RPM, 10 min mixing, the mice were fed once, oral dose 10000 mg/kg.
Animals were observed every hour after administration in the first day, and behavior observation daily continuous for a week. Dead animals were necropsied, gross pathology of the organs were observed and recorded.
Toxicity was evaluated by animal mortality, signs of clinical behavior and others.

For COC(=O)N[C@H](C(=O)N1CCCC1c1nc(-c2cc3sc(-c4ccc(-c5c[nH]c(C6C=CCN6C(=O)[C@H](NC(=O)OC)c6ccccc6)n5)cc4)cc3s2)c[nH]1)C(C)C (stereo partly drawn) [Compound 6fc], the “MTD results: test-article related death and adverse events” value was “no any test-article related death and no any adverse events observed”.

Target: GT-1a of NS5A Replicon
Assay: HCV double reporter gene (Renilla luciferase) replicon assay, GT-1a
Format: cell-based, Hepatitis C virus (HCV)
Conditions: GT-1a replicon; class symbols; read-out: EC50 For GT-1a of NS5A Replicon
Procedure: Antiviral Assay for Inhibition Activity (EC50):
The study is completed by a new constructed double reporter genes replicon assay system, the capacity of viral replicon in infected cell is determined by detecting the reporter gene Renilla luciferase. The relationship of reporter genes, HCV RNA replicon and viral proteins is well linear. 8 gradient concentrations for 2-fold dilution, 3 wells, 3 times repetition and 1 or 2 control drugs are set to finally determine EC50 of compound.
THF was distilled from sodium metal and benzophenone. DCM, pentane and hexane were distilled form calcium hydride. Special raw material and intermediate in the invention were ordered by contract synthesis from Zannan SciTech Co., Let in China, others reagents were purchased from Shanghai reagent company, Aldrich, Acros etc. As intermediates or products during the synthesis is not required for the reaction and other tests the next step, the synthesis is repeated until a sufficient number of times. The invention of the prepared compounds of […] (HCV NS5A) inhibitory activity test was performed by CRO service units such as WuXi AppTec etc.

With COC(=O)N[C@H](C(=O)N1CCC[C@H]1c1nc2cc(-c3csc4c(-c5ccc(-c6c[nH]c([C@@H]7CCCN7C(=O)[C@H](NC(=O)OC)c7ccccc7)n6)cc5)csc34)ccc2[nH]1)C(C)C [Ref-4, reference compound] the EC50 was 1 to 999 pM.

Same assay, conditions: Hepatitis C virus, GT1A, GT-1a replicon; class symbols; read-out: EC50 For GT-1a of NS5A Replicon

COC(=O)N[C@@H](C(=O)N1CC=C[C@H]1c1ncc(-c2ccc(-c3cc4sc(-c5cnc([C@@H]6CCCN6C(=O)[C@H](NC(=O)OC)c6ccccc6)[nH]5)cc4s3)cc2)[nH]1)c1ccccc1 [Compound 6fh] and COC(=O)N[C@@H](C(=O)N1CC=C[C@H]1c1ncc(-c2cc3sc(-c4ccc(-c5cnc([C@@H]6CCCN6C(=O)[C@H](NC(=O)OC)c6ccccc6)[nH]5)cc4)cc3s2)[nH]1)c1ccccc1 [Compound 6fk] fall in the same range of EC50: 1 to 999 pM for the first, 1 to 999 pM for the second.

COC(=O)N[C@H](C(=O)N1CCC[C@H]1c1ncc(-c2cc3sc(-c4ccc(-c5cnc([C@@H]6C=CCN6C(=O)[C@H](NC(=O)OC)c6ccccc6)[nH]5)cc4)cc3s2)[nH]1)C(C)C [Compound 6fj] and COC(=O)N[C@H](C(=O)N1CC=C[C@H]1c1ncc(-c2cc3sc(-c4ccc(-c5cnc([C@@H]6CCCN6C(=O)[C@@H](NC(=O)OC)C(C)C)[nH]5)cc4)cc3s2)[nH]1)C(C)C [Compound 6fn] fall in the same range of EC50: 1 to 999 pM for the first, 1 to 999 pM for the second.

COC(=O)N[C@H](C(=O)N1CC=CC1c1ncc(-c2ccc(-c3csc4c(-c5c[nH]c([C@@H]6CCCN6C(=O)[C@@H](NC(=O)OC)C(C)C)n5)csc34)cc2)[nH]1)C(C)C (stereo partly drawn) [Compound 6fq] and COC(=O)N[C@H](C(=O)N1CCC[C@H]1c1nc(-c2csc3c(-c4ccc(-c5cnc(C6C=CCN6C(=O)[C@H](NC(=O)OC)c6ccccc6)[nH]5)cc4)csc23)c[nH]1)C(C)C (stereo partly drawn) [Compound 6fr] fall in the same range of EC50: 1 to 999 pM for the first, 1 to 999 pM for the second.

COC(=O)N[C@@H](C(=O)N1CC=CC1c1ncc(-c2ccc(-c3csc4c(-c5c[nH]c([C@@H]6CCCN6C(=O)[C@H](NC(=O)OC)c6ccccc6)n5)csc34)cc2)[nH]1)c1ccccc1 (stereo partly drawn) [Compound 6fs] and COC(=O)N[C@H](C(=O)N1CC=CC1c1ncc(-c2ccc(-c3csc4c(-c5c[nH]c([C@@H]6CCCN6C(=O)[C@H](NC(=O)OC)c6ccccc6)n5)csc34)cc2)[nH]1)C(C)C (stereo partly drawn) [Compound 6ft] fall in the same range of EC50: 1 to 999 pM for the first, 1 to 999 pM for the second.

COC(=O)NC(C(=O)N1CC=C[C@H]1c1ncc(-c2ccc(-c3cc4sc(-c5cnc([C@@H]6CCCN6C(=O)[C@H](NC(=O)OC)c6ccccc6)[nH]5)cc4o3)cc2)[nH]1)c1ccccc1 (stereo partly drawn) [Compound 6fw] and COC(=O)N[C@@H](C(=O)N1CC=C[C@H]1c1ncc(-c2ccc(-c3cc4sc(-c5cnc([C@@H]6CCCN6C(=O)[C@H](NC(=O)OC)c6ccccc6)[nH]5)cc4[nH]3)cc2)[nH]1)c1ccccc1 [Compound 6fx] fall in the same range of EC50: 1 to 999 pM for the first, 1 to 999 pM for the second.

COC(=O)N[C@H](C(=O)N1CC=C[C@H]1c1nc(-c2csc3c(-c4ccc(-c5c[nH]c(C6CCCN6C(=O)[C@H](NC(=O)OC)c6ccccc6)n5)cc4)csc23)c[nH]1)C(C)C (stereo partly drawn) [Compound 6fy] and COC(=O)N[C@H](C(=O)N1CCCC1c1nc(-c2ccc(-c3ccc(-c4c[nH]c([C@@H]5CCCN5C(=O)C5(NC(=O)OC)CC5)n4)cc3)cc2)c[nH]1)C(C)C (stereo partly drawn) [Compound 6y] fall in the same range of EC50: 1 to 999 pM for the first, 1 to 999 pM for the second.

CC(C)[C@H](NC(=O)OC1CCCC1)C(=O)N1CCC[C@H]1c1nc(-c2ccc(-c3ccc(-c4cnc([C@@H]5C[C@@H](OC(=O)N6Cc7ccc8c(c7C6)OCO8)CN5C(=O)[C@@H](NC(=O)OC5CCCC5)C(C)C)[nH]4)cc3)cc2)c[nH]1 [Compound 6h] and CC(C)[C@H](NC(=O)OC1CCCC1)C(=O)N1CCC[C@H]1c1nc(-c2ccc(-c3ccc(-c4cnc([C@@H]5C[C@@H](OC(=O)N6Cc7cc8c(cc7C6)OCO8)CN5C(=O)[C@@H](NC(=O)OC5CCCC5)C(C)C)[nH]4)cc3)cc2)c[nH]1 [Compound 6r] cannot be ordered by EC50: > 50000 pM for the first, > 50000 pM for the second.

Compared with COC(=O)N[C@H](C(=O)N1C[C@H](OC(=O)N2Cc3cc4c(cc3C2)OCO4)CC1c1ncc(-c2ccc(-c3ccc(-c4c[nH]c([C@@H]5CCCN5C(=O)[C@@H](NC(=O)OC)C(C)C)n4)cc3)cc2)[nH]1)C(C)C (stereo partly drawn) [Compound 6i], COC(=O)N[C@H](C(=O)N1CCC[C@H]1c1nc(-c2ccc(-c3ccc(-c4cnc([C@@H]5C[C@@H](OC(=O)N6Cc7cc8c(cc7C6)OCO8)CN5C(=O)[C@@H](NC(=O)OC(C)(C)C)C(C)C)[nH]4)cc3)cc2)c[nH]1)C(C)C [Compound 6m] is higher in EC50: 1 to 999 pM for the first, 1000 to 49900 pM for the second.

CC(C)[C@H](NC(=O)OC(C)(C)C)C(=O)N1CCC[C@H]1c1nc(-c2ccc(-c3ccc(-c4cnc([C@@H]5C[C@@H](OC(=O)N6Cc7cc8c(cc7C6)OCO8)CN5C(=O)[C@@H](NC(=O)OC(C)(C)C)C(C)C)[nH]4)cc3)cc2)c[nH]1 [Compound 6j] and CC(C)(C)OC(=O)N[C@H](C(=O)N1CCC[C@H]1c1nc(-c2ccc(-c3ccc(-c4cnc([C@@H]5C[C@@H](OC(=O)N6Cc7cc8c(cc7C6)OCO8)CN5C(=O)[C@@H](NC(=O)OC(C)(C)C)C(C)(C)C)[nH]4)cc3)cc2)c[nH]1)C(C)(C)C [Compound 6k] cannot be ordered by EC50: > 50000 pM for the first, > 50000 pM for the second.

Compared with COC(=O)N[C@H](C(=O)N1CCC[C@H]1c1nc(-c2ccc(-c3ccc(-c4cnc([C@@H]5C[C@@H](OC(=O)N6Cc7cccc(F)c7C6)CN5C(=O)[C@@H](NC(=O)OC)C(C)C)[nH]4)cc3)cc2)c[nH]1)C(C)C [Compound 6s], COC(=O)N[C@H](C(=O)N1CCC[C@H]1c1nc(-c2ccc(-c3ccc(-c4cnc([C@@H]5C[C@@H](OC(=O)N6Cc7cccc(F)c7C6)CN5C(=O)[C@@H](NC(=O)OC(C)(C)C)C(C)C)[nH]4)cc3)cc2)c[nH]1)C(C)C [Compound 6u] is higher in EC50: 1 to 999 pM for the first, 1000 to 49900 pM for the second.

CC(C)[C@H](NC(=O)OC(C)(C)C)C(=O)N1C[C@H](OC(=O)N2Cc3cccc(F)c3C2)CC1c1ncc(-c2ccc(-c3ccc(-c4c[nH]c([C@@H]5CCCN5C(=O)[C@@H](NC(=O)OC(C)(C)C)C(C)C)n4)cc3)cc2)[nH]1 (stereo partly drawn) [Compound 6t] and CC(C)[C@H](NC(=O)OC1CCCC1)C(=O)N1CCC[C@H]1c1nc(-c2ccc(-c3ccc(-c4cnc([C@@H]5C[C@@H](OC(=O)N6Cc7cccc(F)c7C6)CN5C(=O)[C@@H](NC(=O)OC5CCCC5)C(C)C)[nH]4)cc3)cc2)c[nH]1 [Compound 6v] cannot be ordered by EC50: > 50000 pM for the first, > 50000 pM for the second.

COC(=O)N[C@H](C(=O)N1CCCC1c1nc(-c2ccc(-c3ccc(-c4c[nH]c([C@@H]5CCCN5C(=O)C5(NC(=O)OC)CCCC5)n4)cc3)cc2)c[nH]1)C(C)C (stereo partly drawn) [Compound 6z] and COC(=O)N[C@@H](C(=O)N1CCCC1c1ncc(-c2ccc(-c3cc4sc(-c5cnc([C@@H]6CCCN6C(=O)[C@H](NC(=O)OC)c6ccccc6)[nH]5)cc4s3)cc2)[nH]1)c1ccccc1 (stereo partly drawn) [Ref-3, reference compound] fall in the same range of EC50: 1 to 999 pM for the first, 1 to 999 pM for the second.

Same assay, conditions: Hepatitis C virus, GT1A, read-out: EC50 For GT-1a of NS5A Replicon

CC(C)[C@H](NC(=O)OC1CCCC1)C(=O)N1C[C@H](OC(=O)N2Cc3ccc4c(c3C2)OCO4)C[C@H]1c1nc(-c2ccc(-c3ccc(-c4cnc([C@@H]5C[C@@H](OC(=O)N6Cc7ccc8c(c7C6)OCO8)CN5C(=O)[C@@H](NC(=O)OC5CCCC5)C(C)C)[nH]4)cc3)cc2)c[nH]1 [Compound 6g] and CC(C)[C@H](NC(=O)OC1CCCC1)C(=O)N1C[C@H](OC(=O)N2Cc3cc4c(cc3C2)OCO4)C[C@H]1c1nc(-c2ccc(-c3ccc(-c4cnc([C@@H]5C[C@@H](OC(=O)N6Cc7cc8c(cc7C6)OCO8)CN5C(=O)[C@@H](NC(=O)OC5CCCC5)C(C)C)[nH]4)cc3)cc2)c[nH]1 [Compound 6q] cannot be ordered by EC50: > 50000 pM for the first, > 50000 pM for the second.

COC(=O)N[C@H](C(=O)N1C[C@H](OC(=O)N2Cc3cc4c(cc3C2)OCO4)C[C@H]1c1nc(-c2ccc(-c3ccc(-c4cnc([C@@H]5C[C@@H](OC(=O)N6Cc7cc8c(cc7C6)OCO8)CN5C(=O)[C@@H](NC(=O)OC)C(C)C)[nH]4)cc3)cc2)c[nH]1)C(C)C [Compound 6n] and CC(C)[C@H](NC(=O)OC(C)(C)C)C(=O)N1C[C@H](OC(=O)N2Cc3cc4c(cc3C2)OCO4)C[C@H]1c1nc(-c2ccc(-c3ccc(-c4cnc([C@@H]5C[C@@H](OC(=O)N6Cc7cc8c(cc7C6)OCO8)CN5C(=O)[C@@H](NC(=O)OC(C)(C)C)C(C)C)[nH]4)cc3)cc2)c[nH]1 [Compound 6p] cannot be ordered by EC50: > 50000 pM for the first, > 50000 pM for the second.

Compound COC(=O)N[C@H](C(=O)N1CC2(CC2)C[C@H]1c1nc(-c2ccc3c(c2)C(F)(F)c2cc(-c4ccc5[nH]c([C@@H]6[C@H]7CC[C@H](C7)N6C(=O)[C@@H](NC(=O)OC)C(C)C)nc5c4)ccc2-3)c[nH]1)C(C)C [Ref-2, reference compound] has an EC50 of 1 to 999 pM.

Same assay, conditions: Hepatitis C virus, genotype 1a / genotype 6a, read-out: EC50 for Replicon (pM) of GT-1a to GT-6a: 1a

Compared with COC(=O)N[C@H](C(=O)N1CC2(CC2)C[C@H]1c1nc(-c2ccc3c(c2)C(F)(F)c2cc(-c4ccc5[nH]c([C@@H]6[C@H]7CC[C@H](C7)N6C(=O)[C@@H](NC(=O)OC)C(C)C)nc5c4)ccc2-3)c[nH]1)C(C)C [Ref-2, reference compound], COC(=O)N[C@@H](C(=O)N1CCCC1c1ncc(-c2ccc(-c3cc4sc(-c5cnc([C@@H]6CCCN6C(=O)[C@H](NC(=O)OC)c6ccccc6)[nH]5)cc4s3)cc2)[nH]1)c1ccccc1 (stereo partly drawn) [Ref-3, reference compound] is 1.7-fold lower in EC50: 88 pM for the first, 51 pM for the second. The second is the more potent here.

From patent publication US9820972B2, “Antiviral compounds highly effective as HCV-NS5A inhibitor” (priority 2013, dated 2017)
